Data on 23 compounds can be found in US11319299B2, “Substituted carboxamides as inhibitors of WDR5 protein-protein binding” (PROPELLON THERAPEUTICS INC., priority 2016, dated 2022).

The Kd is the concentration at which binding is half-saturated.

For this experiment, the target named is WDR5 (Homo sapiens (Human), UniProt P61964). Kind of experiment: Surface Plasmon Resonance (SPR) assay, KD and residence time. The class given is binding. Particulars: surface plasmon resonance (SPR); read-out: WDR5 binding affinity (KD). Background: SPR reads the build-up and loss of mass on a sensor chip optically.

Structures are written as SMILES.

Turning to `CCN(CC)[C@@H]1CCN(c2cc(F)c(-c3cnc(N4CCOCC4)nc3)cc2NC(=O)c2c[nH]c(=O)cc2C(F)(F)F)C1` [Example 419, N-[4-fluoro-5-(2-morpholin-4-ylpyrimidin-5-yl)-2-[(3R)-3-(diethylamino)pyrrolidin-1-yl]phenyl]-6-oxo-4-(trifluoromethyl)-1H-pyridine-3-carboxamide], the dissociation constant Kd stood at 5.37 nM.
To `CC(C)N(C)[C@@H]1CCN(c2cc(F)c(-c3cnc(N4CCOCC4)nc3)cc2NC(=O)c2c[nH]c(=O)cc2C(F)(F)F)C1` [Example 420, N-[4-fluoro-5-(2-morpholin-4-ylpyrimidin-5-yl)-2-[(3R)-3-[methyl(propan-2-yl)amino]pyrrolidin-1-yl]phenyl]-6-oxo-4-(trifluoromethyl)-1H-pyridine-3-carboxamide] belongs 172 nM; to `C[C@@H]1CN(c2ccc(-c3cc(NC(=O)c4cn(C)c(=O)cc4C(F)(F)F)c(N4C[C@@H](C)N(C)[C@@H](C)C4)cc3F)cn2)C[C@H](C)O1` [Example 422, N-[4-fluoro-5-[6-[(2R,6S)-2,6-dimethylmorpholin-4-yl]pyridin-3-yl]-2-[(3S,5R)-3,4,5-trimethylpiperazin-1-yl]phenyl]-1-methyl-6-oxo-4-(trifluoromethyl)pyridine-3-carboxamide], 2.43 nM.
To `C[C@@H]1CN(c2cc(F)c(-c3cnc(N4CCC(C)(O)CC4)nc3)cc2NC(=O)c2c[nH]c(=O)cc2C(F)(F)F)C[C@H](C)N1C` [Example 425, N-[4-fluoro-5-[2-(4-hydroxy-4-methylpiperidin-1-yl)pyrimidin-5-yl]-2-[(3R,5S)-3,4,5-trimethylpiperazin-1-yl]phenyl]-6-oxo-4-(trifluoromethyl)-1H-pyridine-3-carboxamide] belongs 1.06 nM; to `CCN(CC)[C@@H]1CCN(c2cc(F)c(-c3cnc(N4CCOCC4)nc3)cc2NC(=O)c2cn(C)c(=O)cc2C(F)(F)F)C1` [Example 428, N-[4-fluoro-5-(2-morpholin-4-ylpyrimidin-5-yl)-2-[(3R)-3-(diethylamino)pyrrolidin-1-yl]phenyl]-1-methyl-6-oxo-4-(trifluoromethyl)pyridine-3-carboxamide], 145 nM; to `C[C@@H]1CN(c2ncc(-c3cc(NC(=O)c4ccc(F)cc4C(F)(F)F)c(N4C[C@@H](C)N(C)[C@@H](C)C4)cc3F)cn2)C[C@H](C)O1` [Example 431, 4-fluoro-N-[4-fluoro-5-[2-[(2R,6S)-2,6-dimethylmorpholin-4-yl]pyrimidin-5-yl]-2-[(3S,5R)-3,4,5-trimethylpiperazin-1-yl]phenyl]-2-(trifluoromethyl)benzamide], 0.649 nM.
In the case of `C[C@@H]1CN(c2ccc(-c3cc(NC(=O)c4ccc(F)cc4C(F)(F)F)c(N4C[C@@H](C)N(C)[C@@H](C)C4)cc3F)cn2)C[C@H](C)O1` [Example 432, 4-fluoro-N-[4-fluoro-5-[6-[(2R,6S)-2,6-dimethylmorpholin-4-yl]pyridin-3-yl]-2-[(3S,5R)-3,4,5-trimethylpiperazin-1-yl]phenyl]-2-(trifluoromethyl)benzamide], the Kd came to 2.31 nM.
With `C[C@@H]1CN(c2cc(F)c(-c3ccc(N4CCOCC4)c(F)c3)cc2NC(=O)c2c[nH]c(=O)cc2C(F)F)C[C@H](C)N1C` [Example 436, 4-(difluoromethyl)-N-[4-fluoro-5-(3-fluoro-4-morpholin-4-ylphenyl)-2-[(3R,5S)-3,4,5-trimethylpiperazin-1-yl]phenyl]-6-oxo-1H-pyridine-3-carboxamide] the figure was 1.39 nM.
As to `COc1cnc(N2CC=C(c3cc(NC(=O)c4c[nH]c(=O)cc4C(F)(F)F)c(N4C[C@@H](C)N(C)[C@@H](C)C4)cc3F)C2)nc1` [Example 437, N-[4-fluoro-5-[1-(5-methoxypyrimidin-2-yl)-2,5-dihydropyrrol-3-yl]-2-[(3R,5S)-3,4,5-trimethylpiperazin-1-yl]phenyl]-6-oxo-4-(trifluoromethyl)-1H-pyridine-3-carboxamide], the Kd was 0.721 nM.
To `COc1cc(N2CC=C(c3cc(NC(=O)c4c[nH]c(=O)cc4C(F)(F)F)c(N4C[C@@H](C)N(C)[C@@H](C)C4)cc3F)C2)ncn1` [Example 438, N-[4-fluoro-5-[1-(6-methoxypyrimidin-4-yl)-2,5-dihydropyrrol-3-yl]-2-[(3R,5S)-3,4,5-trimethylpiperazin-1-yl]phenyl]-6-oxo-4-(trifluoromethyl)-1H-pyridine-3-carboxamide] belongs 1.99 nM; to `Cc1cnc(N2CC=C(c3cc(NC(=O)c4c[nH]c(=O)cc4C(F)(F)F)c(N4C[C@@H](C)N(C)[C@@H](C)C4)cc3F)C2)nc1` [Example 439, N-[4-fluoro-5-[1-(5-methylpyrimidin-2-yl)-2,5-dihydropyrrol-3-yl]-2-[(3R,5S)-3,4,5-trimethylpiperazin-1-yl]phenyl]-6-oxo-4-(trifluoromethyl)-1H-pyridine-3-carboxamide], 2.45 nM; to `C[C@@H]1CN(c2cc(F)c(C3=CCN(c4ncc(F)cn4)C3)cc2NC(=O)c2c[nH]c(=O)cc2C(F)(F)F)C[C@H](C)N1C` [Example 440, N-[4-fluoro-5-[1-(5-fluoropyrimidin-2-yl)-2,5-dihydropyrrol-3-yl]-2-[(3R,5S)-3,4,5-trimethylpiperazin-1-yl]phenyl]-6-oxo-4-(trifluoromethyl)-1H-pyridine-3-carboxamide], 2.88 nM.
To `C[C@@H]1CN(c2cc(F)c(C3=CCN(C(=O)N4CCCC4)C3)cc2NC(=O)c2c[nH]c(=O)cc2C(F)(F)F)C[C@H](C)N1C` [Example 441, N-[4-fluoro-5-[1-(pyrrolidine-1-carbonyl)-2,5-dihydropyrrol-3-yl]-2-[(3R,5S)-3,4,5-trimethylpiperazin-1-yl]phenyl]-6-oxo-4-(trifluoromethyl)-1H-pyridine-3-carboxamide] belongs 1.91 nM; to `C[C@@H]1CN(c2cc(F)c(C3=CCN(C(=O)c4cnccn4)C3)cc2NC(=O)c2c[nH]c(=O)cc2C(F)(F)F)C[C@H](C)N1C` [Example 442, N-[4-fluoro-5-[1-(pyrazine-2-carbonyl)-2,5-dihydropyrrol-3-yl]-2-[(3R,5S)-3,4,5-trimethylpiperazin-1-yl]phenyl]-6-oxo-4-(trifluoromethyl)-1H-pyridine-3-carboxamide], 3.67 nM.
With `CC(C)COC(=O)N1CC=C(c2cc(NC(=O)c3c[nH]c(=O)cc3C(F)(F)F)c(N3C[C@@H](C)N(C)[C@@H](C)C3)cc2F)C1` [Example 443, 2-methylpropyl 3-[2-fluoro-5-[[6-oxo-4-(trifluoromethyl)-1H-pyridine-3-carbonyl]amino]-4-[(3R,5S)-3,4,5-trimethylpiperazin-1-yl]phenyl]-2,5-dihydropyrrole-1-carboxylate] the figure was 2.37 nM; with `C[C@@H]1CN(c2cc(F)c(C3=CCN(c4ncc(C=O)cn4)C3)cc2NC(=O)c2c[nH]c(=O)cc2C(F)(F)F)C[C@H](C)N1C` [Example 444, N-[4-fluoro-5-[1-(5-formylpyrimidin-2-yl)-2,5-dihydropyrrol-3-yl]-2-[(3R,5S)-3,4,5-trimethylpiperazin-1-yl]phenyl]-6-oxo-4-(trifluoromethyl)-1H-pyridine-3-carboxamide], 2.96 nM.
As to `C[C@@H]1CN(c2cc(F)c(-c3cnn(C)c3)cc2NC(=O)c2c[nH]c(=O)cc2C(F)(F)F)C[C@H](C)N1C` [Example 445, N-[4-fluoro-5-(1-methylpyrazol-4-yl)-2-[(3R,5S)-3,4,5-trimethylpiperazin-1-yl]phenyl]-6-oxo-4-(trifluoromethyl)-1H-pyridine-3-carboxamide], the Kd turned out to be 1.95 nM.
With `C[C@@H]1CN(c2cc(F)c(-c3nc(C#N)cs3)cc2NC(=O)c2c[nH]c(=O)cc2C(F)(F)F)C[C@H](C)N1C` [Example 446, N-[5-(4-cyano-1,3-thiazol-2-yl)-4-fluoro-2-[(3R,5S)-3,4,5-trimethylpiperazin-1-yl]phenyl]-6-oxo-4-(trifluoromethyl)-1H-pyridine-3-carboxamide] the figure was 2.94 nM.
To `C[C@@H]1CN(c2cc(F)c(-c3ncc(C#N)s3)cc2NC(=O)c2c[nH]c(=O)cc2C(F)(F)F)C[C@H](C)N1C` [Example 447, N-[5-(5-cyano-1,3-thiazol-2-yl)-4-fluoro-2-[(3R,5S)-3,4,5-trimethylpiperazin-1-yl]phenyl]-6-oxo-4-(trifluoromethyl)-1H-pyridine-3-carboxamide] belongs 2.88 nM; to `C[C@@H]1CN(c2cc(F)c(-c3ccc(N4CCOCC4)c(F)c3)cc2NC(=O)c2cn(C)c(=O)cc2C(F)F)C[C@H](C)N1C` [Example 449, 4-(difluoromethyl)-N-[4-fluoro-5-(3-fluoro-4-morpholin-4-ylphenyl)-2-[(3R,5S)-3,4,5-trimethylpiperazin-1-yl]phenyl]-1-methyl-6-oxopyridine-3-carboxamide], 9.03 nM; to `C[C@@H]1CN(c2cc(F)c(-c3cnc(N4CCN(C5CC5)CC4)nc3)cc2NC(=O)c2ccc(F)cc2C(F)(F)F)C[C@H](C)N1C` [Example 454, N-[5-[2-(4-cyclopropylpiperazin-1-yl)pyrimidin-5-yl]-4-fluoro-2-[(3R,5S)-3,4,5-trimethylpiperazin-1-yl]phenyl]-4-fluoro-2-(trifluoromethyl)benzamide], 4.05 nM.
To `C[C@@H]1CN(c2cc(F)c(C3=CCN(c4ncc(CN(C)C)cn4)C3)cc2NC(=O)c2c[nH]c(=O)cc2C(F)(F)F)C[C@H](C)N1C` [Example 457, N-[5-[1-[5-[(dimethylamino)methyl]pyrimidin-2-yl]-2,5-dihydropyrrol-3-yl]-4-fluoro-2-[(3R,5S)-3,4,5-trimethylpiperazin-1-yl]phenyl]-6-oxo-4-(trifluoromethyl)-1H-pyridine-3-carboxamide] belongs 2.57 nM; to `C[C@@H]1CN(c2cc(F)c(C3=CCN(c4ncc(CN5CCOCC5)cn4)C3)cc2NC(=O)c2c[nH]c(=O)cc2C(F)(F)F)C[C@H](C)N1C` [Example 458, N-[4-fluoro-5-[1-[5-(morpholin-4-ylmethyl)pyrimidin-2-yl]-2,5-dihydropyrrol-3-yl]-2-[(3R,5S)-3,4,5-trimethylpiperazin-1-yl]phenyl]-6-oxo-4-(trifluoromethyl)-1H-pyridine-3-carboxamide], 0.474 nM.
